# Values joined by “and” are separate entries in the source; they are usually repeats but may differ in a detail not shown here. Equal values may be shown once.
# Experiments:
# K-562 = assay: NCI-60 screen, Leukemia K-562; assay type: cell-based, human; settings: for Growth of Cells (%): K-562, 10^−5 M one dose
# RPMI-8226 = assay: NCI-60 screen, Leukemia RPMI-8226; assay type: cell-based, human; settings: for Growth of Cells (%): RPMI-8226, 10^−5 M one dose
# HCT-116 = assay: NCI-60 screen, Colon Cancer HCT-116; assay type: cell-based, human; settings: for Growth of Cells (%): HCT-116, 10^−5 M one dose
# HCC-2998 = assay: NCI-60 screen, Colon Cancer HCC-2998; assay type: cell-based, human; settings: for Growth of Cells (%): HCC-2998, 10^−5 M one dose
# SF-268 = assay: NCI-60 screen, CNS Cancer SF-268; assay type: cell-based, human; settings: for Growth of Cells (%): SF-268, 10^−5 M one dose
# SF-295 = assay: NCI-60 screen, CNS Cancer SF-295; assay type: cell-based, human; settings: for Growth of Cells (%): SF-295, 10^−5 M one dose
# SNB-19 = assay: NCI-60 screen, CNS Cancer SNB-19; assay type: cell-based, human; settings: for Growth of Cells (%): SNB-19, 10^−5 M one dose
# U251 = assay: NCI-60 screen, CNS Cancer U251; assay type: cell-based, human; settings: for Growth of Cells (%): U251, 10^−5 M one dose
# MDA-MB-435 = assay: NCI-60 screen, Melanoma MDA-MB-435; assay type: cell-based, human; settings: for Growth of Cells (%): MDA-MB-435, 10^−5 M one dose
# Procedure: The search for the cytotoxic activity of new derivatives usually starts with in vitro cell-based screening. Four compounds 2b (NSC D-745983/1), 3b (NSC D-766111/1), 4b (NSC D-785591/1) and 4c (NSC D-771706/1), selected by the National Cancer Institute were tested in the anticancer screen for a panel of approximately 60 human disease-oriented tumor cell lines, organized into subpanels derived from nine human cancer types—leukemia, melanoma, and cancers of the lung, colon, brain, breast, ovary, prostate, and kidney. They were initially tested at only one concentration of 10 µM (10^−5 M) for each cell line, which were inoculated and preincubated on a microtiter plate for […]. The results of the one-dose anticancer assay for the tested new compounds are reported as the percentage of the treated cell growth in comparison with untreated no-drug control. This allows for detection of the growth inhibition—values 0–100 and cytotoxicity; negative numbers mean cell death.
# Antitumor activity in five dose testing (10^−4−10^−8 M) is expressed by three different dose–response parameters for each of the 60 human tumor cell lines. The GI50 value (molar concentration causing a half-growth inhibition), TGI (molar concentration required for total growth inhibition), which signifies the cytostatic effect, and LC50 (molar concentration of the compound required for 50% cell death). LC50 signifies the cytotoxic effect. […] Nevertheless, the selectivity for GI50 can be seen for several cell lines within subpanel leukemia (SR, log GI50 −6.36) and non-small cell lung cancer (NCI-H522, log GI50 −6.69).
# The antitumor screening (NCI-60) was performed at the National Cancer Institute, Bethesda, USA. A total panel of approximately 60 human tumor cell lines derived from nine different cancer types (leukemia, non-small cell lung, colon, brain, melanoma, ovarian, renal, prostate and breast) formed the basis of this in vitro test. The origins and processing of the cell lines used in the study were described previously. First, the compounds were evaluated in a primary anticancer assay at 10^−5 M. Results for each tested compound are reported as the percent of growth of the treated cells. […] The human tumor cell lines of the cancer screening panel were grown in an RMPI 1640 medium containing 5% fetal bovine serum and 2 mM of L-glutamine. Each cell line was inoculated and preincubated at 37 °C, 5% CO2, 95% air and 100% relative humidity for 24 h, before the addition of the test compound into 96-well microtiter plates in 100 µL at plating densities ranging from 5000 to 40,000 cells/well. The density of inoculum depends on the type of tumor cell and its growth characteristics. The screened compounds were solubilized in dimethyl sulfoxide at 400-fold the desired final concentration and stored frozen. At the time of the test agents’ addition, an aliquot of frozen concentrate was thawed and diluted to twice the desired final concentration with complete medium containing 50 µg/mL gentamicin. Next, the test compounds were evaluated at the four additional 10-fold dilutions to reach the final concentrations plus control. Aliquots of 100 µL of the different dilutions (100, 10, 1, […] µM/mL) of the tested compounds were added to microtiter wells, and the culture was incubated for 48 h under the same conditions. Cell were fixed in situ by the addition of 50 µL of cold 50% trichloroacetic acid and incubated for 60 min at 4 °C. The supernatant was discarded; plates were washed five times with water and air-dried. Sulforhodamine B at 0.4% in 1% acetic acid, 100 µL, was added to each well, then plates were incubated for 10 min at room temperature. Unbound dye was removed by washing five times with 1% acetic acid and air dried. The protein-bound stain was solubilized with a […] trizma base and the absorbance was read on an automated plate reader. A wavelength of 515 nm was used to read optical densities. […]
# OVCAR-5 = assay: NCI-60 screen, Ovarian Cancer OVCAR-5; assay type: cell-based, human; settings: for Growth of Cells (%): OVCAR-5, 10^−5 M one dose
# 786-0 = assay: NCI-60 screen, Renal Cancer 786-0; assay type: cell-based; settings: for Growth of Cells (%): 786-0, 10^−5 M one dose
# SN12C = assay: NCI-60 screen, Renal Cancer SN12C; assay type: cell-based; settings: for Growth of Cells (%): 10^−5 M one dose
# TK-10 = assay: NCI-60 screen, Renal Cancer TK-10; assay type: cell-based, human; settings: for Growth of Cells (%): TK-10, 10^−5 M one dose
# [1] = Homo sapiens, HCC-2998, five doses 10^−4–10^−8 M
# [2] = Homo sapiens, SF-295, five doses 10^−4–10^−8 M
# [3] = Homo sapiens, SNB-19, five doses 10^−4–10^−8 M
# [4] = Homo sapiens, U-251, U251, five doses 10^−4–10^−8 M
smiles,measurement,setting,value
"O=c1[nH]c(C(F)(F)F)nc2c1sc(=S)n2-c1ccccc1 [Compound 2b, 3-phenyl-2-thioxo-5-(trifluoromethyl)-2,3-dihydro[1, 3]thiazolo[4,5-d]pyrimidin-7(6H)-one]",Growth of Cells (%),K-562,115.47%
same,Growth of Cells (%),RPMI-8226,108.14%
same,Growth of Cells (%),HCT-116,102.27%
same,Growth of Cells (%),HCC-2998,116.48%
same,Growth of Cells (%),SF-268,101.77%
same,Growth of Cells (%),SF-295,116.63%
same,Growth of Cells (%),SNB-19,102.20%
same,Growth of Cells (%),U251,101.63%
same,Growth of Cells (%),MDA-MB-435,114.64%
same,Growth of Cells (%),OVCAR-5,101.99%
same,Growth of Cells (%),786-0,104.97%
same,Growth of Cells (%),SN12C,106.95%
same,Growth of Cells (%),TK-10,130.06%
"FC(F)(F)c1nc(Cl)c2sc(=S)n(-c3ccccc3)c2n1 [Compound 3b, 7-chloro-3-phenyl-5-(trifluoromethyl)[1, 3]thiazolo[4,5-d]pyrimidine-2(3H)-thione]",GI50,"K-562; Homo sapiens, K562, K-562, five doses 10^−4–10^−8 M",0.692 µM
same,CC50,"K-562; Homo sapiens, K562, K-562, five doses 10^−4–10^−8 M, read-out: log LC50 (the source's name) (converted)",> 100 µM
same,Growth of Cells (%),K-562,33.07%
same,log TGI,"K-562; K-562, five doses 10^−4–10^−8 M",−5.36 log M
same,GI50,"RPMI-8226; Homo sapiens, RPMI-8226, five doses 10^−4–10^−8 M",2.51 µM
same,CC50,"RPMI-8226; Homo sapiens, RPMI-8226, five doses 10^−4–10^−8 M, read-out: log LC50 (the source's name) (converted)",> 100 µM
same,Growth of Cells (%),RPMI-8226,44.45%
same,log TGI,"RPMI-8226; RPMI-8226, five doses 10^−4–10^−8 M",−5.11 log M
same,Growth of Cells (%),HCT-116,−27.21%
same,log TGI,"HCT-116; HCT-116, five doses 10^−4–10^−8 M",−5.47 log M
same,GI50,"HCT-116; Homo sapiens, HCT-116, five doses 10^−4–10^−8 M",1.74 µM
same,CC50,"HCT-116; Homo sapiens, HCT-116, five doses 10^−4–10^−8 M, read-out: log LC50 (the source's name) (converted)",6.61 µM
same,Growth of Cells (%),HCC-2998,−26.98% and −26.89%
same,log TGI,"HCC-2998; HCC-2998, five doses 10^−4–10^−8 M",−5.31 log M
same,GI50,HCC-2998; [1],2.24 µM
same,LC50,HCC-2998; [1],12.9 µM
same,GI50,"SF-268; Homo sapiens, SF-268, five doses 10^−4–10^−8 M",1.78 µM
same,CC50,"SF-268; Homo sapiens, SF-268, five doses 10^−4–10^−8 M, read-out: log LC50 (the source's name) (converted)",6.61 µM
same,Growth of Cells (%),SF-268,84.73%
same,GI50,SF-295; [2],12.3 µM
same,LC50,SF-295; [2],52.5 µM
same,log TGI,"SF-295; SF-295, five doses 10^−4–10^−8 M",−4.59 log M
same,GI50,SNB-19; [3],1.78 µM
same,LC50,SNB-19; [3],5.89 µM
same,Growth of Cells (%),SNB-19,98.46%
same,log TGI,"SNB-19; SNB-19, five doses 10^−4–10^−8 M",−5.49 log M
same,GI50,U251; [4],1.74 µM
same,LC50 (lethal concentration 50%),U251; [4],5.75 µM
same,log TGI,"U251; U251, five doses 10^−4–10^−8 M",−5.50 log M
same,GI50,"MDA-MB-435; Homo sapiens, MDA-MB-435, five doses 10^−4–10^−8 M",1.86 µM
same,CC50,"MDA-MB-435; Homo sapiens, MDA-MB-435, five doses 10^−4–10^−8 M, read-out: log LC50 (the source's name) (converted)",7.41 µM
same,Growth of Cells (%),MDA-MB-435,6.26%
same,log TGI,"MDA-MB-435; MDA-MB-435, five doses 10^−4–10^−8 M",−5.43 log M
same,GI50,"OVCAR-5; Homo sapiens, OVCAR-5, five doses 10^−4–10^−8 M",8.71 µM
same,CC50,"OVCAR-5; Homo sapiens, OVCAR-5, five doses 10^−4–10^−8 M, read-out: log LC50 (the source's name) (converted)",64.6 µM
same,Growth of Cells (%),OVCAR-5,86.56%
same,log TGI,"OVCAR-5; OVCAR-5, five doses 10^−4–10^−8 M",−4.60 log M
same,Growth of Cells (%),786-0,90.12%
same,log TGI,"786-0; 786-0, five doses 10^−4–10^−8 M",−5.42 log M
same,GI50,"786-0; Homo sapiens, 786-0, five doses 10^−4–10^−8 M",1.95 µM
same,CC50,"786-0; Homo sapiens, 786-0, five doses 10^−4–10^−8 M, read-out: log LC50 (the source's name) (converted)",7.41 µM
same,Growth of Cells (%),SN12C,85.61%
same,CC50,"SN12C; Homo sapiens, five doses 10^−4–10^−8 M, read-out: log LC50 (the source's name) (converted)",40.7 µM
same,GI50,"SN12C; Homo sapiens, read-out: log GI50 (converted)",3.55 µM
same,log TGI,SN12C; five doses 10^−4–10^−8 M,−4.88 log M
same,GI50,"TK-10; Homo sapiens, TK-10, five doses 10^−4–10^−8 M",2 µM
same,CC50,"TK-10; Homo sapiens, TK-10, five doses 10^−4–10^−8 M, read-out: log LC50 (the source's name) (converted)",8.32 µM
same,Growth of Cells (%),TK-10,51.24%
same,log TGI,"TK-10; TK-10, five doses 10^−4–10^−8 M",−5.39 log M
"CCNc1nc(C(F)(F)F)nc2c1sc(=S)n2-c1ccccc1 [Compound 4b, 7-(ethylamino)-3-phenyl-5-(trifluoromethyl)[1, 3]thiazolo[4,5-d]pyrimidine-2(3H)-thione]",Growth of Cells (%),K-562,102.59%
same,Growth of Cells (%),HCT-116,94.34%
same,Growth of Cells (%),HCC-2998,115.06%
same,Growth of Cells (%),SF-268,104.72%
same,Growth of Cells (%),SF-295,94.05%
same,Growth of Cells (%),SNB-19,106.58%
same,Growth of Cells (%),U251,93.27%
same,Growth of Cells (%),MDA-MB-435,112.84%
same,Growth of Cells (%),OVCAR-5,112.27%
same,Growth of Cells (%),786-0,101.39%
same,Growth of Cells (%),SN12C,100.30%
same,Growth of Cells (%),TK-10,88.79%
Fc1ccc(CNc2nc(C(F)(F)F)nc3c2sc(=S)n3-c2ccccc2)cc1 [Compound 4c],Growth of Cells (%),K-562,107.45%
same,Growth of Cells (%),RPMI-8226,104.96%
same,Growth of Cells (%),HCT-116,111.01%
same,Growth of Cells (%),HCC-2998,118.24%
same,Growth of Cells (%),SF-268,109.32%
same,Growth of Cells (%),SF-295,91.10%
same,Growth of Cells (%),SNB-19,106.48%
same,Growth of Cells (%),MDA-MB-435,102.86%
same,Growth of Cells (%),OVCAR-5,102.72%
same,Growth of Cells (%),786-0,99.38%
same,Growth of Cells (%),SN12C,101.41%
same,Growth of Cells (%),TK-10,130.70%

# Source: paper PMC8778818, “Synthesis, Structural Characterization and Anticancer Activity of New 5-Trifluoromethyl-2-thioxo-thiazolo[4,5-d]pyrimidine Derivatives” (Pharmaceuticals, 2022)
